From article PMC5883364 (Malaria Journal, 2018)
“Also recorded” adds a separate entry of the source. Read-outs that look alike come from different tables or passages of the source.

Columns and labels:
[1] = test system: P. falciparum IPC5202 (artemisinin-resistant, K13 R539T); test: SYBR Green I assay, IC50, strain IPC5202; format: cell-based, Plasmodium falciparum; settings: for Resistance Index RIb = IC50 (IPC5202)/IC50 (3D7): IPC5202 vs 3D7; for IC50: Plasmodium falciparum, read-out: P. falciparum IC50 ± SD, IPC5202, strain IPC5202
Description: (§1) Staging and parasitaemia were determined by light microscopy of Giemsa-stained thin blood smears. Anti-malarial activity was determined using the SYBR Green I assay, as previously described.

[2] = test system: P. falciparum IPC4912 (artemisinin-resistant, K13 I543T); test: SYBR Green I assay, IC50, strain IPC4912; format: cell-based, Plasmodium falciparum; settings: for Resistance Index RIc = IC50 (IPC4912)/IC50 (3D7): IPC4912 vs 3D7; for IC50: Plasmodium falciparum, read-out: P. falciparum IC50 ± SD, IPC4912
Description: Staging and parasitaemia were determined by light microscopy of Giemsa-stained thin blood smears. Anti-malarial activity was determined using the SYBR Green I assay, as previously described. Briefly, early ring stage parasites (> 80% of rings) were challenged with a 1:3 serial dilution of each compound, in concentrations ranging from 10,000–0.169 nM. Fluorescence intensity was measured with a multi-mode microplate reader (Triad, Dynex Technologies), with excitation and emission wavelengths of 485 and 535 nm, respectively, and analysed by nonlinear regression using GraphPad Prism to determine IC50 values.

[3] = test system: HepG2-A16 (human hepatoma) cells; settings: for Selectivity index LD50 (HepG2)/IC50 (3D7): HepG2 vs 3D7; for Selectivity index LD50 (HepG2)/IC50 (Dd2): HepG2 vs Dd2; for Selectivity index LD50 (HepG2)/IC50 (IPC4912): HepG2 vs IPC4912; for Selectivity index LD50 (HepG2)/IC50 (IPC5202): HepG2 vs IPC5202; for LD50 HepG2: human, 48 h
Description: (§2) Cytotoxicity was assessed on the mammalian cell lines HepG2-A16 (human hepatoma) and V79 (Chinese hamster lung), using a MTT based assay, as previously described. […] V79 and HepG2 cell lines were incubated for 24 and 48 h, respectively (media changed at 24 h intervals). Absorbance was read at 570 nm on a multi-mode microplate reader (Triad, Dynex Technologies), to produce a log dose-dependence curve. The LD50 value for each compound was estimated by non-linear interpolation of the dose-dependence curve (GraphPad Software).

[4] = test system: V79 (Chinese hamster lung) cells; settings: for LD50 V79: Chinese hamster, 24 h; for Selectivity index LD50 (V79)/IC50 (3D7): V79 vs 3D7; for Selectivity index LD50 (V79)/IC50 (Dd2): V79 vs Dd2; for Selectivity index LD50 (V79)/IC50 (IPC4912): V79 vs IPC4912; for Selectivity index LD50 (V79)/IC50 (IPC5202): V79 vs IPC5202
Description: as §2

Plasmodium berghei NK65 = test: Peters' 4-day suppressive test in Swiss albino mice; format: in vivo; settings: for in vivo outcome against P. berghei in words / inhibition in vivo at 50 mg/kg/day / Mean parasitaemia ± SD, Day 5 / Mean parasitaemia ± SD, Day 7 / Mean parasitaemia ± SD, Day 10: 50 mg/kg/day oral for 4 days; for in vivo outcome against P. berghei in words: followed to day 10; for inhibition in vivo at 50 mg/kg/day: Plasmodium berghei; for inhibition in vivo at 50 mg/kg/day / Mean parasitaemia ± SD, Day 5 / Mean parasitaemia ± SD, Day 7 / Mean parasitaemia ± SD, Day 10: mice
Description: In vivo tests were performed following the Guidelines for Ethical Conduct in The Care and Use of Animals of the Federal University of Rio Grande do Norte—Brazil (CEUA/UFRN/46/2013). Evaluation of anti-malarial activity in vivo was carried out using the Peters’ 4-day suppressive test, with modifications, as previously described. Swiss albino mice were infected with Plasmodium berghei NK65 and randomly allocated to groups of five animals. Animals were treated with 50 mg/kg/day of each of the tested compounds (dissolved in PBS containing 1% DMSO), administrated orally, for four consecutive days. The control group was treated with a solution of PBS/1% DMSO. On days 5 (D5), 7 (D7) and 10 (D10) after parasite inoculation, tail blood smears were Giemsa-stained and examined microscopically to estimate parasitaemia. Acute toxicity testing was carried out to determine adverse effects due to compounds (including weight loss, hair appearance, skin wounds and behavioural changes), and recorded daily.

[5] = test system: P. falciparum Dd2 (chloroquine-resistant, mefloquine-resistant); test: SYBR Green I assay, IC50, strain Dd2; format: cell-based, Plasmodium falciparum; settings: Dd2 vs 3D7
Description: as §1

[6] = 120 h, day 5, vs control group, read-out: % inhibition of parasite growth, Day 5 (converted)
[7] = 168 h, day 7, vs control group, read-out: % inhibition of parasite growth, Day 7 (converted)
[8] = 240 h, day 10, vs control group, read-out: % inhibition of parasite growth, Day 10 (converted)

Row | SMILES | Resistance Index RIb = IC50 (IPC5202)/IC50 (3D7) [1] | IC50 [1] | Resistance Index RIc = IC50 (IPC4912)/IC50 (3D7) [2] | IC50 [2] | Selectivity index LD50 (HepG2)/IC50 (3D7) [3] | Selectivity index LD50 (HepG2)/IC50 (Dd2) [3] | Selectivity index LD50 (HepG2)/IC50 (IPC4912) [3] | Selectivity index LD50 (HepG2)/IC50 (IPC5202) [3] | LD50 HepG2 [3] | LD50 V79 [4] | Selectivity index LD50 (V79)/IC50 (3D7) [4] | Selectivity index LD50 (V79)/IC50 (Dd2) [4] | Selectivity index LD50 (V79)/IC50 (IPC4912) [4] | Selectivity index LD50 (V79)/IC50 (IPC5202) [4] | inhibition in vivo at 50 mg/kg/day (Plasmodium berghei NK65; [6]) | inhibition in vivo at 50 mg/kg/day (Plasmodium berghei NK65; [7]) | inhibition in vivo at 50 mg/kg/day (Plasmodium berghei NK65; [8]) | Mean parasitaemia ± SD, Day 5 (Plasmodium berghei NK65; day 5) | Mean parasitaemia ± SD, Day 7 (Plasmodium berghei NK65; day 7) | Mean parasitaemia ± SD, Day 10 (Plasmodium berghei NK65) | other results
1 | O=S1(=O)N=C(OCC2CCC3(CC2)OOC2(O3)C3CC4CC(C3)CC2C4)c2ccccc21 (stereo not drawn) [LC129] | 0.85 | 36.4 ± 0.6 nM | 0.79 | 29.3 ± 0.7 nM | 23310.0 | 23148.1 | 29673.5 | 27502.7 | 1.0 mM | > 1 mM | 23310.0 | 23148.1 | 29673.5 | 27502.7 | 87.6% | 50.7% | 76.7% | 0.19 ± 0.12% | 1.76 ± 1.36% | 1.32 ± 1.24% | in vivo outcome against P. berghei in words (Plasmodium berghei NK65): failed to completely suppress it
2 | C1C2CC3CC1CC(C2)C31OOC2(CCC(Nc3nnn[nH]3)CC2)O1 (stereo not drawn) [LC136] | 2.18 | 6.1 ± 1.9 nM | 2.43 | 6.8 ± 2.3 nM | 357142.8 | 400000.0 | 147058.8 | 163934.4 | 1.0 mM | > 1 mM | 357142.8 | 400000.0 | 147058.8 | 163934.4 | 100% | 100% | 100% | 0% | 0% | 0% | in vivo outcome against P. berghei in words (Plasmodium berghei NK65): complete suppression of parasitaemia; also recorded: total suppression of parasitaemia from day 5 to day 10; also recorded: totally suppressed P. berghei parasitaemia
3 | O=S1(=O)N=C(NCC2CCC3(CC2)OOC2(O3)C3CC4CC(C3)CC2C4)c2ccccc21 (stereo not drawn) [LC130] | 0.35 | 8.2 ± 1.9 nM | 0.10 | 2.4 ± 1.6 nM | 42918.4 | 40322.6 | 416666.6 | 121951.2 | 1.0 mM | > 1 mM | 42918.4 | 40322.6 | 416666.6 | 121951.2 | 100% | 60.8% | 76.7% | 0% | 1.4 ± 0.94% | 1.32 ± 0.24% | in vivo outcome against P. berghei in words (Plasmodium berghei NK65): recrudescence occurred on day 7; mice parasitemic, day 7 (Plasmodium berghei NK65; groups of five mice, 50 mg/kg/day oral, day 7): 2/5
4 | Cn1nnc(NCC2CCC3(CC2)OOC2(O3)C3CC4CC(C3)CC2C4)n1 (stereo not drawn) [LC131] | 1.17 | 3.4 ± 2.1 nM | 1.66 | 4.8 ± 1.2 nM | 344827.5 | 476190.5 | 208333.3 | 294117.6 | 1.0 mM | > 1 mM | 344827.5 | 476190.5 | 208333.3 | 294117.6 | 100% | 100% | 100% | 0% | 0% | 0% | in vivo outcome against P. berghei in words (Plasmodium berghei NK65): complete suppression of parasitaemia; also recorded: total suppression of parasitaemia from day 5 to day 10; also recorded: totally suppressed P. berghei parasitaemia
5 | CC(C)(C)OC(=O)NCCCCNC1CCC2(CC1)OOC1(O2)C2CC3CC(C2)CC1C3 (stereo not drawn) [MIS14] | – | 413 ± 20.2 nM | – | 390 ± 17.8 nM | 8439.9 | 7399.1 | 847.2 | 798.8 | 0.3 mM | > 1 mM | 25575.4 | 22421.5 | 2567.4 | 2420.7 | – | – | – | – | – | – | Resistance Index RIa = IC50 (Dd2)/IC50 (3D7) [5]: 1.1; decrease in HepG2 survival ([3]; maximum dose of 1 mM): ~30%
6 | CCCCNC(=O)C1CCC2(CC1)OOC1(O2)C2CC3CC(C2)CC1C3 (stereo not drawn) [LC92] | 1.41 | 37.7 ± 9.9 nM | 1.31 | 34.9 ± 7.9 nM | 37453.1 | 44247.8 | 28653.3 | 26525.2 | 1.0 mM | > 1 mM | 37453.1 | 44247.8 | 28653.3 | 26525.2 | 98.3% | 87% | 86.3% | 0.02 ± 0.05% | 0.46 ± 0.60% | 0.77 ± 0.26% | mice presenting parasitaemia, day 5 (Plasmodium berghei NK65; groups of five mice, 50 mg/kg/day oral, day 5): 5
